# Data taken from PubChem BioAssay (NCI).
#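 GI50 = concentration required for 50% inhibition of growth. The concentration for full growth arrest is given as TGI.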
# Columns and labels:
# Experiment in all cases: NCI anticancer screen, dose series, 384-well format
# MDA-MB-231 breast = test system: MDA-MB-231 breast
# SF-295 CNS = test system: SF-295 CNS
# SR leukemia = test system: SR leukemia
# HS 578T breast = test system: HS 578T breast
# NCI-H460 NSCLC = test system: NCI-H460 NSCLC
# T-47D breast = test system: T-47D breast
# SW-620 colon = test system: SW-620 colon
# OVCAR-4 ovarian = test system: OVCAR-4 ovarian
# SK-OV-3 ovarian = test system: SK-OV-3 ovarian
# U251 glioblastoma = test system: U251 glioblastoma
# MDA-MB-468 breast = test system: MDA-MB-468 breast
# SN12C renal = test system: SN12C renal
# CCRF-CEM leukemia = test system: CCRF-CEM leukemia
# SF-268 CNS = test system: SF-268 CNS
# CAKI-1 renal = test system: CAKI-1 renal
# MOLT-4 leukemia = test system: MOLT-4 leukemia
# M14 melanoma = test system: M14 melanoma
# SF-539 CNS = test system: SF-539 CNS
# TK-10 renal = test system: TK-10 renal
# HL-60(TB) leukemia = test system: HL-60(TB) leukemia
# NCI-H226 lung = test system: NCI-H226 lung
# NCI-H23 lung = test system: NCI-H23 lung
# SNB-75 CNS = test system: SNB-75 CNS
# UACC-257 melanoma = test system: UACC-257 melanoma
# HCC-2998 colon = test system: HCC-2998 colon
# BT-549 breast = test system: BT-549 breast
# NCI-H322M lung = test system: NCI-H322M lung
# HCT-15 colon = test system: HCT-15 colon
# OVCAR-8 ovarian = test system: OVCAR-8 ovarian
# K-562 leukemia = test system: K-562 leukemia
# SNB-19 CNS = test system: SNB-19 CNS
# UO-31 renal = test system: UO-31 renal
# MDA-MB-435 melanoma = test system: MDA-MB-435 melanoma
# SK-MEL-5 melanoma = test system: SK-MEL-5 melanoma
# COLO 205 colon = test system: COLO 205 colon
# MCF7 breast = test system: MCF7 breast
# OVCAR-5 ovarian = test system: OVCAR-5 ovarian
# HT29 colon = test system: HT29 colon
# EKVX NSCLC = test system: EKVX NSCLC
# MALME-3M melanoma = test system: MALME-3M melanoma
# RXF 393 renal = test system: RXF 393 renal
# RPMI-8226 leukemia = test system: RPMI-8226 leukemia
# A498 renal = test system: A498 renal
# IGROV1 ovarian = test system: IGROV1 ovarian
# HOP-62 NSCLC = test system: HOP-62 NSCLC
# DU-145 prostate = test system: DU-145 prostate
# SK-MEL-28 melanoma = test system: SK-MEL-28 melanoma
structure (smiles),measurement,setting,value
Cc1cc2c(C(C)C)c(O)c(O)c(C=O)c2c(O)c1-c1c(C)cc2c(C(C)C)c(O)c(O)c(C=O)c2c1O (tested in a mixture with another compound),GI50,MDA-MB-231 breast,1.88 µM
same,TGI,MDA-MB-231 breast,4.15 µM
same,GI50,SF-295 CNS,1.21 µM
same,TGI,SF-295 CNS,2.71 µM
same,GI50,SR leukemia,1.8 µM
same,TGI,SR leukemia,3.21 µM
same,GI50,HS 578T breast,1.67 µM
same,TGI,HS 578T breast,3.06 µM
same,GI50,NCI-H460 NSCLC,1.9 µM
same,TGI,NCI-H460 NSCLC,3.4 µM
same,GI50,T-47D breast,1.7 µM
same,TGI,T-47D breast,3.41 µM
same,GI50,SW-620 colon,2.07 µM
same,TGI,SW-620 colon,3.98 µM
same,GI50,OVCAR-4 ovarian,2.85 µM
same,TGI,OVCAR-4 ovarian,7.52 µM
same,GI50,SK-OV-3 ovarian,2.58 µM
same,TGI,SK-OV-3 ovarian,6.67 µM
same,GI50,U251 glioblastoma,1.59 µM
same,TGI,U251 glioblastoma,3.02 µM
same,GI50,MDA-MB-468 breast,1.68 µM
same,TGI,MDA-MB-468 breast,3.29 µM
same,GI50,SN12C renal,1.92 µM
same,TGI,SN12C renal,3.73 µM
same,GI50,CCRF-CEM leukemia,1.14 µM
same,TGI,CCRF-CEM leukemia,2.38 µM
same,GI50,SF-268 CNS,1.66 µM
same,TGI,SF-268 CNS,3.26 µM
same,GI50,CAKI-1 renal,2.53 µM
same,TGI,CAKI-1 renal,5.93 µM
same,GI50,MOLT-4 leukemia,0.765 µM
same,TGI,MOLT-4 leukemia,2.01 µM
same,GI50,M14 melanoma,1.83 µM
same,TGI,M14 melanoma,3.79 µM
same,GI50,SF-539 CNS,1.72 µM
same,TGI,SF-539 CNS,3.18 µM
same,GI50,TK-10 renal,2.48 µM
same,TGI,TK-10 renal,6.23 µM
same,GI50,HL-60(TB) leukemia,1.69 µM
same,TGI,HL-60(TB) leukemia,3.09 µM
same,GI50,NCI-H226 lung,1.63 µM
same,TGI,NCI-H226 lung,3.03 µM
same,GI50,NCI-H23 lung,1.84 µM
same,TGI,NCI-H23 lung,4.06 µM
same,GI50,SNB-75 CNS,2.26 µM
same,TGI,SNB-75 CNS,4.37 µM
same,GI50,UACC-257 melanoma,1.99 µM
same,TGI,UACC-257 melanoma,3.8 µM
same,GI50,HCC-2998 colon,2.32 µM
same,TGI,HCC-2998 colon,4.7 µM
same,GI50,BT-549 breast,1.53 µM
same,TGI,BT-549 breast,2.94 µM
same,GI50,NCI-H322M lung,1.67 µM
same,TGI,NCI-H322M lung,4.14 µM
same,GI50,HCT-15 colon,1.83 µM
same,TGI,HCT-15 colon,3.35 µM
same,GI50,OVCAR-8 ovarian,1.75 µM
same,TGI,OVCAR-8 ovarian,3.24 µM
same,GI50,K-562 leukemia,1.4 µM
same,TGI,K-562 leukemia,2.87 µM
same,GI50,SNB-19 CNS,1.25 µM
same,TGI,SNB-19 CNS,2.92 µM
same,GI50,UO-31 renal,2.73 µM
same,TGI,UO-31 renal,7.08 µM
same,GI50,MDA-MB-435 melanoma,2.42 µM
same,TGI,MDA-MB-435 melanoma,5.17 µM
same,GI50,SK-MEL-5 melanoma,1.76 µM
same,TGI,SK-MEL-5 melanoma,3.18 µM
same,GI50,COLO 205 colon,3.18 µM
same,TGI,COLO 205 colon,9.01 µM
same,GI50,MCF7 breast,2.09 µM
same,TGI,MCF7 breast,4.51 µM
same,GI50,OVCAR-5 ovarian,2.29 µM
same,TGI,OVCAR-5 ovarian,4.57 µM
same,GI50,HT29 colon,2.88 µM
same,TGI,HT29 colon,9.04 µM
same,GI50,EKVX NSCLC,1.85 µM
same,TGI,EKVX NSCLC,3.97 µM
same,GI50,MALME-3M melanoma,1.7 µM
same,TGI,MALME-3M melanoma,3.47 µM
same,GI50,RXF 393 renal,0.604 µM
same,TGI,RXF 393 renal,1.96 µM
same,GI50,RPMI-8226 leukemia,1.42 µM
same,TGI,RPMI-8226 leukemia,2.73 µM
same,GI50,A498 renal,2.41 µM
same,TGI,A498 renal,9.87 µM
same,GI50,IGROV1 ovarian,1.95 µM
same,TGI,IGROV1 ovarian,3.85 µM
same,GI50,HOP-62 NSCLC,2.24 µM
same,TGI,HOP-62 NSCLC,3.9 µM
same,GI50,DU-145 prostate,1.86 µM
same,TGI,DU-145 prostate,3.47 µM
same,GI50,SK-MEL-28 melanoma,1.59 µM
same,TGI,SK-MEL-28 melanoma,3.13 µM
